Results: patent US20040053898A1, “Combination preparation with a erbeta selective estrogen and serm or antiestorgen” (priority 2000, published 2004)

Legend:
[1] = test system: estrogen receptor preparations of rat prostates and rat uteri; test: estrogen receptor binding, 3H-estradiol competition, rat prostate versus rat uterus cytosol; conditions: rat prostate ER versus rat uterus ER
Description: The binding affinity of the new selective estrogens (ERβ-ligands) and SERMs was tested in competitive experiments with use of 3H-estradiol as a ligand in estrogen receptor preparations of rat prostates and rat uteri.

[2] = test system: human estrogen receptor α (ERα) / human estrogen receptor β (ERβ); test: binding to human estrogen receptors α and β; conditions: human ERα than human ERβ
ERβ compared to ERα = conditions: in-vitro receptor binding test; cited from earlier work

| SMILES | RBA value in rat prostate estrogen receptor relative to RBA value in rat uterus estrogen receptor (fold better) [1] [×] | binding to human ERα relative to human ERβ (fold better) [2] [×] | preference for ERβ compared to ERα (ERβ compared to ERα) |
| --- | --- | --- | --- |
| C[C@]12CC[C@@H]3c4ccc(O)cc4CC[C@H]3[C@@H]1C[C@@H](O)C2=O [16α-hydroxyestrone] | 5 | 3 | – |
| O=c1c(-c2ccc(O)cc2)coc2cc(O)cc(O)c12 [genisteine] | – | – | ERβ-selectivity |
